The source of these data is patent EP0211183A2, “Use of ubidecarenone(ubiquinone-10) as an antichromatotic agent” (Eisai Co., Ltd., priority 1985, dated 1987).

Like-named read-outs stand apart in the source and are kept apart here.

A short description of data set [1]: Acute toxicity, various dosage pathways, 7-day lethality, LD50 by Litchfield-Wilcoxon. The conditions noted are these: in vivo, read-out: LD50 value (95% confidence limit). The format is in vivo, ICR-JCL mice. Here is the method: (§1) The acute toxicity of the present substance was investigated in various dosage pathways by the use of Wister rats and ICR-JCL mice. For the peroral or endermic dosage, the present substance was dissolved in a distilled water and the resulting solution was used. For the other dosages, the present substance was dissolved in a physiological salt solution and the resulting solution was dosed with a stomach conductor or an injector. In each dosage, a determined amount of the substance was regulated and properly dosed.
(§2) After the dosage, the expression of toxicopathy was continuously observed, and the lethality with the lapse of time for 7 days was measured and the value of LDSO was obtained therefrom. Both the tested animals as living and the tested animals as died were dissected for observation. LD50 was calculated on the basis of Litchfield-Wilcoxon figure-calculation method.

The subject of data set [2] is ICR-JCL mice. Described as above. It counts as in vivo. Conditions: mice. On the procedure: as §1, §2
Data set [3] has as its system Wister rats. Described as above. It counts as in vivo. The conditions noted are these: rats. On the procedure:
as §1, §2

For data set [4], the system named is guinea pigs. Briefly: Sensitization, maximization test by Magnusson and Kligman. It counts as in vivo. Conditions: challenge on day 21, sealed 24 hours. Here is the method: This was tested in accordance with a maximization test by Magnusson B. and Kligman, A.M. The test is as follows:
Twenty guinea pigs were prepared for the test, ten being for the induction and the other ten being for the control in the challenge. The suprascapular part of the guinea pig was clipped and shaved in the area of 4cm x 6cm, and the following three pairs of hypodermic injections (a), (b) and (c) were imparted simultaneously to both the right and left parts as being symmetrical about the median line. • (a) Each 0.05ml of FCA to two points in both the right and left parts, totalling O.lml in all. • (b) Each 0.05ml of the test substance to two points in both the right and left parts, in the form of an aqueous solution (content of test substance: 10X). • (c) Each 0.05ml of FCA as containing the test substance emulsion to two points in both the right and left parts.
After one week from the hypodermic injection, the suprascapular part was again clipped and vaseline containing 10X of sodium laurylsulfate was applied thereover thereby to cause a slight inflammation on the applied part. By this treatment, the sensitization was intensified. Next, the test substance was applied to this part, which was thereafter airtightly sealed. […]

[5] abbreviates: at the dosages of Table-1, 7 days.

With `COC1=C(OC)C(=O)C(CC=C(C)CCC=C(C)CCC=C(C)CCC=C(C)CCC=C(C)CCC=C(C)CCC=C(C)CCC=C(C)CCC=C(C)CCC=C(C)C)=C(C)C1=O` [ubiquinone-10], the LD50 (in general, the dose expected to kill half of the subjects tested) at 168 h in data set [1] (mouse, im, mice (male, female), Intramuscular) was 500 mg/kg; in data set [1] (mouse, ip, mice (male, female), Intra-abdominal) it was 1500 mg/kg; in data set [1] (mouse, po, mice (male, female), Peroral), 4000 mg/kg; in data set [1] (mouse, sc, mice (male, female), Hypodermic), 500 mg/kg; in data set [1] (mouse, mice (male, female), Endermic) it was 4000 mg/kg; in data set [1] (mouse, mice (male, female), Intravenous) it was 250 mg/kg. Besides, the LD50 at 168 h worked out at 500 mg/kg in data set [1] (rat, im, rats (male, female), Intramuscular); 1500 mg/kg in data set [1] (rat, ip, rats (male, female), Intra-abdominal); 4000 mg/kg in data set [1] (rat, po, rats (male, female), Peroral); 500 mg/kg in data set [1] (rat, sc, rats (male, female), Hypodermic); 4000 mg/kg in data set [1] (rat, rats (male, female), Endermic); 250 mg/kg in data set [1] (rat, rats (male, female), Intravenous). Moreover, the “general condition, weight, amount of feed intake, observation in dissection” value in data set [2] (at the dosages of Table-1) and in data set [3] (at the dosages of Table-1) was “no abnormal change was found” throughout. For the same compound, the lethality entry in data set [2] (setting [5]) and in data set [3] (setting [5]) was “no animals as tested died” throughout. Also, the sensitization reaction result in data set [4] is “No sensitization reaction”.
